Assay results: patent publication US20240317721A1, “PYRAZOLYL DERIVATIVES AS INHIBITORS OF THE KRAS MUTANT PROTEIN” (NOVARTIS AG, priority 2021, published 2024)

What follows are molecules tested against KRasG12C (M1-K169, biotinylated on the N-terminus) (Homo sapiens (Human), UniProt P01116, G12C) (assay: Covalent competition assay: scintillation proximity assay (SPA) quantifying covalent modification of KRASG12C). Conditions: competition with radiolabeled covalent probe (Compound B/Compound A), 2 hours incubation, 10 nM KRasG12C.
Type: binding
How it was run: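 Test compounds compete with a radiolabeled covalent probe for modification of N-terminally biotinylated KRasG12C(M1-K169):GDP, final 10 nM protein, 25 nM radio-ligand, 475 nM unlabelled ligand, 2 h with agitation in 20 mM Tris-HCl pH 7.5, 150 mM NaCl, 0.1 mM MgCl2, 0.01% Tween-20.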
`C=CC(=O)N1CC2(CCC(n3nc(N4CCN(C(C)=O)CC4)c(-c4c(Cl)ccc5[nH]ncc45)c3C)C2)C1` (single isomer, unassigned) [Example 53b, 1-(6-(3-(4-acetylpiperazin-1-yl)-4-(5-chloro-1H-indazol-4-yl)-5-methyl-1H-pyrazol-1-yl)-2-azaspiro[3.4]octan-2-yl)prop-2-en-1-one] gave an IC50 greater than 50 µM.
`C=CC(=O)N1CC2(CCC(n3nc(N4CCN(C(C)=O)CC4)c(-c4c(Cl)ccc5[nH]ncc45)c3C)C2)C1` (single isomer, unassigned) [Example 53c, 1-(6-(3-(4-acetylpiperazin-1-yl)-4-(5-chloro-1H-indazol-4-yl)-5-methyl-1H-pyrazol-1-yl)-2-azaspiro[3.4]octan-2-yl)prop-2-en-1-one] showed an IC50 greater than 50 µM.
`C=CC(=O)N1CC2(CCC(n3nc(N4CCN(C(C)=O)CC4)c(-c4c(Cl)ccc5[nH]ncc45)c3C)C2)C1` (single isomer, unassigned) [Example 53d, 1-(6-(3-(4-acetylpiperazin-1-yl)-4-(5-chloro-1H-indazol-4-yl)-5-methyl-1H-pyrazol-1-yl)-2-azaspiro[3.4]octan-2-yl)prop-2-en-1-one] was tested, and the IC50 was 9.03 µM.
In the case of `C=CC(=O)N1CC2(CC(n3nc(N4CCN(C5COC5)CC45CCC5)c(-c4c(Cl)c(C)cc5[nH]ncc45)c3C)C2)C1` (single isomer, unassigned) [Example 54a, 1-(6-(4-(5-Chloro-6-methyl-1H-indazol-4-yl)-5-methyl-3-(8-(oxetan-3-yl)-5,8-diazaspiro[3.5]nonan-5-yl)-1H-pyrazol-1-yl)-2-azaspiro[3.3]heptan-2-yl)prop-2-en-1-one], the IC50 is reported as 17.8 µM.
`C=CC(=O)N1CC2(CC(n3nc(N4CCN(C5COC5)CC45CCC5)c(-c4c(Cl)c(C)cc5[nH]ncc45)c3C)C2)C1` (single isomer, unassigned) [Example 54b, 1-(6-(4-(5-Chloro-6-methyl-1H-indazol-4-yl)-5-methyl-3-(8-(oxetan-3-yl)-5,8-diazaspiro[3.5]nonan-5-yl)-1H-pyrazol-1-yl)-2-azaspiro[3.3]heptan-2-yl)prop-2-en-1-one] gave an IC50 of 0.015 µM.
With `C=CC(=O)N1CC2(CC(n3nc(N4CCN(C)CC45CCC5)c(-c4c(Cl)c(C)cc5[nH]ncc45)c3C)C2)C1` (single isomer, unassigned) [Example 55a, 1-(6-(4-(5-chloro-6-methyl-1H-indazol-4-yl)-5-methyl-3-(8-methyl-5,8-diazaspiro[3.5]nonan-5-yl)-1H-pyrazol-1-yl)-2-azaspiro[3.3]heptan-2-yl)prop-2-en-1-one] the IC50 was 24.7 µM.
With `C=CC(=O)N1CC2(CC(n3nc(N4CCN(C)CC45CCC5)c(-c4c(Cl)c(C)cc5[nH]ncc45)c3C)C2)C1` (single isomer, unassigned) [Example 55b, 1-(6-(4-(5-chloro-6-methyl-1H-indazol-4-yl)-5-methyl-3-(8-methyl-5,8-diazaspiro[3.5]nonan-5-yl)-1H-pyrazol-1-yl)-2-azaspiro[3.3]heptan-2-yl)prop-2-en-1-one] the IC50 was 0.034 µM.
With `C=CC(=O)N1CC2(CC(n3nc(N4[C@@H](C)CN(C(C)=O)C[C@@H]4C)c(-c4c(Cl)c(C)cc5[nH]ncc45)c3C)C2)C1` (single isomer, unassigned) [Example 56a] the IC50 was greater than 50 µM.
Work on `C=CC(=O)N1CC2(CC(n3nc(N4[C@@H](C)CN(C(C)=O)C[C@@H]4C)c(-c4c(Cl)c(C)cc5[nH]ncc45)c3C)C2)C1` (single isomer, unassigned) [Example 56b] yielded an IC50 of 0.334 µM.
With `C=CC(=O)N1CC2(CC(n3nc(N4C5CCC4CN(C(C)=O)C5)c(-c4c(Cl)c(C)cc5[nH]ncc45)c3C)C2)C1` (single isomer, unassigned) [Example 57a, 1-(6-(3-(3-acetyl-3,8-diazabicyclo[3.2.1]octan-8-yl)-4-(5-chloro-6-methyl-1H-indazol-4-yl)-5-methyl-1H-pyrazol-1-yl)-2-azaspiro[3.3]heptan-2-yl)prop-2-en-1-one] the IC50 was 34.7 µM.
Work on `C=CC(=O)N1CC2(CC(n3nc(N4C5CCC4CN(C(C)=O)C5)c(-c4c(Cl)c(C)cc5[nH]ncc45)c3C)C2)C1` (single isomer, unassigned) [Example 57b, 1-(6-(3-(3-acetyl-3,8-diazabicyclo[3.2.1]octan-8-yl)-4-(5-chloro-6-methyl-1H-indazol-4-yl)-5-methyl-1H-pyrazol-1-yl)-2-azaspiro[3.3]heptan-2-yl)prop-2-en-1-one] yielded an IC50 of 0.216 µM.
`C=CC(=O)N1CC2(CC(n3nc(N4CCC(N(CC)C5COC5)CC4(C)C)c(-c4c(Cl)c(Cl)cc5[nH]ncc45)c3C)C2)C1` (single isomer, unassigned) [Example 61a, 1-(6-(4-(5,6-dichloro-1H-indazol-4-yl)-3-(4-(ethyl(oxetan-3-yl)amino)-2,2-dimethylpiperidin-1-yl)-5-methyl-1H-pyrazol-1-yl)-2-azaspiro[3.3]heptan-2-yl)prop-2-en-1-one] showed an IC50 of 0.881 µM.
For `C=CC(=O)N1CC2(CC(n3nc(N4CCC(N(CC)C5COC5)CC4(C)C)c(-c4c(Cl)c(Cl)cc5[nH]ncc45)c3C)C2)C1` (single isomer, unassigned) [Example 61b, 1-(6-(4-(5,6-dichloro-1H-indazol-4-yl)-3-(4-(ethyl(oxetan-3-yl)amino)-2,2-dimethylpiperidin-1-yl)-5-methyl-1H-pyrazol-1-yl)-2-azaspiro[3.3]heptan-2-yl)prop-2-en-1-one], the IC50 was 0.006 µM.
Work on `C=CC(=O)N1CC2(CC(n3nc(N4CCC(N5CCOCC5)CC45CCC5)c(-c4c(Cl)c(C)cc5[nH]ncc45)c3C)C2)C1` (single isomer, unassigned) [Example 63a, 1-(6-(4-(5-chloro-6-methyl-1H-indazol-4-yl)-5-methyl-3-(8-morpholino-5-azaspiro[3.5]nonan-5-yl)-1H-pyrazol-1-yl)-2-azaspiro[3.3]heptan-2-yl)prop-2-en-1-one] yielded an IC50 of 0.01 µM.
Molecule `C=CC(=O)N1CC2(CC(n3nc(N4CCC(N5CCOCC5)CC45CCC5)c(-c4c(Cl)c(C)cc5[nH]ncc45)c3C)C2)C1` (single isomer, unassigned) [Example 63b, 1-(6-(4-(5-chloro-6-methyl-1H-indazol-4-yl)-5-methyl-3-(8-morpholino-5-azaspiro[3.5]nonan-5-yl)-1H-pyrazol-1-yl)-2-azaspiro[3.3]heptan-2-yl)prop-2-en-1-one] has an IC50 of 3.1 µM.
For `C=CC(=O)N1CC2(CC(n3nc(N4CC(=O)N(C)CC45CCC5)c(-c4c(Cl)c(C)cc5[nH]ncc45)c3C)C2)C1` (single isomer, unassigned) [Example 65a, 5-(1-(2-acryloyl-2-azaspiro[3.3]heptan-6-yl)-4-(5-chloro-6-methyl-1H-indazol-4-yl)-5-methyl-1H-pyrazol-3-yl)-8-methyl-5,8-diazaspiro[3.5]nonan-7-one], the IC50 was greater than 5 µM.
For `C=CC(=O)N1CC2(CC(n3nc(N4CC(=O)N(C)CC45CCC5)c(-c4c(Cl)c(C)cc5[nH]ncc45)c3C)C2)C1` (single isomer, unassigned) [Example 65b, 5-(1-(2-acryloyl-2-azaspiro[3.3]heptan-6-yl)-4-(5-chloro-6-methyl-1H-indazol-4-yl)-5-methyl-1H-pyrazol-3-yl)-8-methyl-5,8-diazaspiro[3.5]nonan-7-one], the IC50 was 0.212 µM.
Molecule `C=CC(=O)N1CC2(CC(n3nc(N4CCCCC45CN(C(C)=O)C5)c(-c4c(Cl)c(C)cc5[nH]ncc45)c3C)C2)C1` (single isomer, unassigned) [Example 66a, 1-(6-(3-(2-acetyl-2,5-diazaspiro[3.5]nonan-5-yl)-4-(5-chloro-6-methyl-1H-indazol-4-yl)-5-methyl-1H-pyrazol-1-yl)-2-azaspiro[3.3]heptan-2-yl)prop-2-en-1-one] has an IC50 greater than 50 µM.
In the case of `C=CC(=O)N1CC2(CC(n3nc(N4CCCCC45CN(C(C)=O)C5)c(-c4c(Cl)c(C)cc5[nH]ncc45)c3C)C2)C1` (single isomer, unassigned) [Example 66b, 1-(6-(3-(2-acetyl-2,5-diazaspiro[3.5]nonan-5-yl)-4-(5-chloro-6-methyl-1H-indazol-4-yl)-5-methyl-1H-pyrazol-1-yl)-2-azaspiro[3.3]heptan-2-yl)prop-2-en-1-one], the IC50 is reported as 2.2 µM.
`C=CC(=O)N1CC2(CC(n3nc(N4CCN(C5COC5)CC4(C)C)c(-c4c(Cl)c(C)cc5[nH]ncc45)c3C)C2)C1` (single isomer, unassigned) [Example 67a, 1-(6-(4-(5-chloro-6-methyl-1H-indazol-4-yl)-3-(2,2-dimethyl-4-(oxetan-3-yl)piperazin-1-yl)-5-methyl-1H-pyrazol-1-yl)-2-azaspiro[3.3]heptan-2-yl)prop-2-en-1-one] was tested, and the IC50 was greater than 50 µM.
With `C=CC(=O)N1CC2(CC(n3nc(N4CCN(C5COC5)CC4(C)C)c(-c4c(Cl)c(C)cc5[nH]ncc45)c3C)C2)C1` (single isomer, unassigned) [Example 67b, 1-(6-(4-(5-chloro-6-methyl-1H-indazol-4-yl)-3-(2,2-dimethyl-4-(oxetan-3-yl)piperazin-1-yl)-5-methyl-1H-pyrazol-1-yl)-2-azaspiro[3.3]heptan-2-yl)prop-2-en-1-one] the IC50 was 0.038 µM.
`C=CC(=O)N1CC2(CC(n3nc(N4CCN(CC(F)(F)F)CC4(C)C)c(-c4c(Cl)c(C)cc5[nH]ncc45)c3C)C2)C1` (single isomer, unassigned) [Example 68a, 1-(6-(4-(5-chloro-6-methyl-1H-indazol-4-yl)-3-(2,2-dimethyl-4-(2,2,2-trifluoroethyl)piperazin-1-yl)-5-methyl-1H-pyrazol-1-yl)-2-azaspiro[3.3]heptan-2-yl)prop-2-en-1-one] gave an IC50 greater than 15 µM.
With `C=CC(=O)N1CC2(CC(n3nc(N4CCN(CC(F)(F)F)CC4(C)C)c(-c4c(Cl)c(C)cc5[nH]ncc45)c3C)C2)C1` (single isomer, unassigned) [Example 68b, 1-(6-(4-(5-chloro-6-methyl-1H-indazol-4-yl)-3-(2,2-dimethyl-4-(2,2,2-trifluoroethyl)piperazin-1-yl)-5-methyl-1H-pyrazol-1-yl)-2-azaspiro[3.3]heptan-2-yl)prop-2-en-1-one] the IC50 was 0.239 µM.
`C=CC(=O)N1CC2(CC(n3nc(N4CC[C@@H](N(C)C(C)=O)CC4(C)C)c(-c4c(Cl)c(C)cc5[nH]ncc45)c3C)C2)C1` (single isomer, unassigned) [Example 69a] gave an IC50 of 4.4 µM.
